Measurements taken from patent US20100178286A1, “METHODS AND COMPOSITIONS FOR REDUCING FACIAL LINES AND WRINKLES” (priority 2007, published 2010).

Tested on: epidermis / stratum corneum (skin cell renewal)
Experiment: Skin cell renewal (dansyl chloride) method
Assay type: in vivo, human
Settings: standard positive control; topical, pH 3.0 dissolved in water; vs untreated site
Excerpt: Several test methods were used to evaluate results of the compositions according to the present disclosure. One test method used was the skin cell renewal (dansyl chloride) method. The rate of cell renewal, or the transit time for an epidermal basal cell, to mature and slough off the skin surface can be assessed via a dansyl chloride staining method. As we age the rate of renewal decreases from about 15-20 days for a person to about 30 days for a person. […]
The full thickness epidermis was stained with a fluorescent dye as follows: 5% ultra pure dansyl chloride was milled into petrolatum and applied as a very thin film to standard adhesive bandages that were 2 cm by 3 cm. […] Staining was confirmed by viewing the sites with a long wave (ultra violet) UV light source to detect dansyl chloride fluorescence. […]
To assess product effects on cell renewal rates, test products were applied topically twice a day in a randomized fashion to the test sites with an untreated site serving as a control. […] Removal of the stain, reflecting loss of stratum corneum was monitored daily with the UV light source until complete removal, usually occurring in 3-4 weeks, of all stain was noted. The percentage increase in cell renewal was calculated as follows: […]

CC(O)C(=O)O (stereo not shown) [5% lactic acid, lactic acid]
increases in renewal rates (percentage increase in cell renewal): 25-30%
